# Test results taken from article PMC11181322, “Copper(II) Complexes with Isomeric Morpholine-Substituted 2-Formylpyridine Thiosemicarbazone Hybrids as Potential Anticancer Drugs Inhibiting Both Ribonucleotide Reductase and Tubulin Polymerization: The Morpholine Position Matters” (Journal of Medicinal Chemistry, 2024).
# Legend:
# MES-SA cells [1] = assay: Intracellular ROS generation, DCF-DA assay, MES-SA; assay type: cell-based, human; settings: 25 μM, 4 h treatment
# Protocol: ROS accumulation was evaluated in both the MES-SA and MES-SA/Dx5 cell lines by using 2′,7′-dichlorodihydrofluorescein diacetate (H2DCF-DA) as a probe. This compound enters the cells by passive diffusion, and after oxidation, it is converted to the highly fluorescent 2′,7′-dichlorofluorescein (DCF), enabling the estimation of intracellular ROS levels. ROS generation was measured after a 4 h treatment with 25 μM H2L^6 or 6; tert-butylhydroperoxide (TBHP, 25 μM) was used as a positive control.
# Figure 6 Intracellular ROS generation measured by the DCF-DA assay in MES-SA (filled bars) and MES-SA/Dx5 (lattice bars) cells, after a 4 h treatment with the indicated compounds at 25 μM: H2L^6 (gray), complex 6 (yellow), Triapine (green), and TBHP (brown). Values indicate fold change relative to the fluorescence of the cells treated with fluorescent probe alone (orange bars), following normalization to the initial fluorescence at the beginning of the incubation. Paired t test to the medium control was calculated; […]; **P < 0.01. Values were calculated from at least three independent experiments.
# The human uterine sarcoma cell lines MES-SA and the doxorubicin selected MES-SA-Dx5 were obtained from ATCC (MES-SA: No. CRL-1976, MES-SA/Dx5: No. CRL-1977) and were used for the intracellular ROS generation studies. […]
# MES-SA cells [2] = assay: dNTP pools in MES-SA cell extracts; assay type: cell-based, human; settings: at both concentrations (10 and 25 μM), 24 h
# Excerpt: RNR reduces NDPs to their corresponding deoxy derivatives (dNDPs), which are further converted into dNTPs.[77] Therefore, we investigated the effect of the most toxic proligand H2L^6 and its copper(II) complex 6 on cellular dNTP levels, using Triapine as a control. […] Triapine also elicits a dATP pool decrease while increasing the pools of the three other dNTP species. Decreasing the dATP pool to zero can give rise to the observed cytotoxic effect upon treatment with Triapine. Complex 6 seems to affect dNTP pools by a more complex mechanism, which is nevertheless consistent with R2 inhibition.[79]
# Figure 8 Measurement of dNTP pools in MES-SA cell extracts following a 24 h treatment with proligand H2L^6, complex 6, or Triapine at the indicated concentrations. Three independent experiments were performed; error bars represent standard error; stars indicate significant changes compared to the respective control (Ctrl) at p < 0.05.
# After a 24 h incubation with or without drugs, MES-SA cells were washed twice with PBS and trypsinized for 5 min. […] The pellet containing dNTPs was redissolved in 50 μL of RNase-free water and stored at −20 °C. dNTP-containing samples were measured by a nucleotide incorporation-based fluorescent method.[97] We used a long synthetic oligonucleotide (197 nt) as a template, which contains a dNTP-detection site, the sole complementary base to that of the dNTP to be quantified directly adjacent to the annealed primer. […] In addition to the limiting amount of dNTP to be quantified, the polymerization reaction mix contained the other three dNTPs in large excess. The double-stranded DNA product is detected by the EvaGreen Dye. The 2X master mix for the DNA synthesis reaction contained the following: 0.275 μM primer (Merck KGaA, Darmstadt, Germany), 0.25 μM template (IDT, Coralville, Iowa, USA), 50 μM dNTP mix (excluding the dNTP to be measured in the given experiment to limit its source to the sample), and 1.25 μM EvaGreen (Biotium). […] Fluorescence amplitude data were extracted from the Bio-Rad CFX Maestro Software and analyzed using Excel and Origin. […]
smiles,measurement,setting,value
"Cc1cc(NC(=NN=Cc2cccc(CN3CCOCC3)n2)[S][Cu][Cl])cc(C)c1O [complex 6, [Cu(HL^6)Cl]·H2O]",Intracellular ROS generation,MES-SA cells [1],significant ROS induction
same,dATP and dTTP levels,MES-SA cells [2],marked decrease
